Assay results: patent US8962844B2, “1,3,4-oxadiazole and 1,3,4-thiadiazole β-lactamase inhibitors” (priority 2012, dated 2015)
Where a name gives a salt, the structure may show the parent alone.

Key:
[1] = test system: bacterial strains that express the class D cephalosporinase OXA-15; test: Standard BLI potentiation MIC / synergy MIC (sMIC) assays run in the presence of a β-lactam, OXA-15 expressing strains; assay type: cell-based, E. coli; settings: BLI in combination with a β-lactam; comparison with Avibactam (comparator compound CCC)
Method in brief: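 Isogenic E. coli DH10B carrying cloned β-lactamase genes on pBR322-derived plasmid (blaTEM-1 promoter, tetracycline 25 μg/mL) tested by CLSI broth microdilution in CAMHB. Test compound and β-lactam each diluted and combined; MIC reported in presence of β-lactam.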

[2] = test system: bacterial strains that express KPC β-lactamases; test: Standard BLI potentiation MIC / synergy MIC (sMIC) assays run in the presence of a β-lactam, KPC expressing strains; assay type: cell-based; settings: more active for at least one KPC strain and/or better spectrum of activity than Avibactam; BLI in combination with a β-lactam
Excerpt: Unless otherwise indicated, the activity of the BLI compounds can be described by the MIC value obtained from a Synergy MIC assay or a BLI potentiation assay (e.g as described herein), both of which are run in the presence of a β-lactam.
A set of β-lactamase expressing isogenic E. coli strains was constructed by cloning a β-lactamase gene into a customized derivative of pBR322 (GenBank Accession Number J01749) and transforming the engineered plasmids into E. coli. The NdeI restriction site within the plasmid backbone of pBR322 was removed to generate pBR322 ΔNdeI. The pBR322 ΔNdeI vector itself, minus the blaTEM-1 gene, was amplified using two primers: (1) pBR-Pbla 5′-cgcatatgactettectttttcaatattattg-3, SEQ ID 1, a primer with an engineered NdeI restriction site at the 3′ end of the blaTEM-1 promoter and (2) pBR-vec-1 5′-[…]-3′, SEQ ID 2, a primer with an engineered BamHI restriction site at the 3′ end of the blaTEM-1 open reading frame. The chloramphenicol resistance gene, cat, was generated by PCR amplification from pKD3 (GenBank Accession Number AY048742) using primers with an engineered NdeI restriction site at the 5′ end (Pbla-cat 5′-[…]-3′, SEQ ID 3) and an engineered BamHI restriction site at the 3′ end (Vec-1-cat 5′-[…]-3′, SEQ ID 4) of the resistance gene. The two PCR products, pBR322 ΔNdeI and cat were ligated together generating pBR-CBST (pBR322 ΔNdeI ΔTEM-1::cat Seq. ID 5) which retains both the pBR322 tetracycline resistance cassette, tetA, and the plasmid origin of replication but the blaTEM-1 gene was replaced by the cat gene.
Using this engineering strategy a number of plasmids producing β-lactamase genes from different classes (see below) were generated using synthetic genes with an engineered NdeI restriction site at the 5′ end and BamHI restriction site at the 3′ end of each gene (GenScript). Both the synthetic β-lactamase genes and cat gene were ligated into the NdeI/BamHI sites of the pBR322 ΔNdeI PCR product and transformed into electrocompetent E. coli ElectroMax DH10B (Invitrogen/Life Technologies). E. coli DH10B harboring the recombinant plasmids were selected on LB agar (supplemented with 25 μg/mL tetracycline) and single isolated colonies were then inoculated into 5 mL LB media (supplemented with 25 μg/mL tetracycline), and incubated at 37° C. with aeration (250 rpm) for 18 hrs. The cultures were frozen back at −80° C. in 20% glycerol. The DNA sequence of the cloned β-lactamase genes was confirmed. The β-lactamase gene expression in the recombinant E. coli strains was driven by the blaTEM-1 promoter in the pBR-CBST plasmid and was characterized by MIC profiling of the E. coli recombinant strains against comparator β-lactam/BLI combinations in broth microdilution assay.
The experimental protocol was performed according to Clinical and Laboratory Standards Institute (CLSI) guidelines with modifications as described below (CLSI guidelines can be derived from the CLSI document M07-A9 published in January 2012: “Methods for Dilution Antimicrobial Susceptibility Tests for Bacteria That Grow Aerobically; Approved Standard-Ninth Edition”).
To prepare for MIC testing, frozen glycerol stocks of clinical isolates (Klebsiella pneumoniae, Eschericia coli, Enterobacter spp, Citrobacter spp, or Pseudomonas aeruginosa) were used to streak for isolated colonies on rich, non-selective, tryptic soy agar containing 5% sheep's blood (TSAB). Frozen glycerol stocks of laboratory engineered, isogenic E. coli strains, which contain cloned β-lactamase expressing plasmids were used to streak for isolated colonies on rich, selective LB agar supplemented with 25 μg/mL tetracycline to maintain the plasmid. All strains were incubated at 37° C. for 18-24 hrs.
On the day of testing, primary cultures were started by scraping off 5-10 colonies from the TSAB plates containing clinical strains or the tetracycline supplemented LB plates containing engineered strains. […]

| Compound | activity against bacterial strains that express the class D cephalosporinase OXA-15, compared with Avibactam [1] | activity and/or spectrum of activity against bacterial strains that express KPC β-lactamases, compared with Avibactam [2] |
| --- | --- | --- |
| N[C@H]1CC[C@@H](c2nnc([C@@H]3CC[C@@H]4CN3C(=O)N4OS(=O)(=O)O)o2)C1 [Compound 768, (2S,5R)-2-(5-((1R,3S)-3-aminocyclopentyl)-1,3,4-oxadiazol-2-yl)-7-oxo-1,6-diazabicyclo[3.2.1]octan-6-yl hydrogen sulfate] | more active than Avibactam | more active than Avibactam |
| CNCCc1nnc([C@@H]2CC[C@@H]3CN2C(=O)N3OS(=O)(=O)O)o1 [Compound 722, (2S,5R)-2-(5-(2-(methylamino)ethyl)-1,3,4-oxadiazol-2-yl)-7-oxo-1,6-diazabicyclo[3.2.1]octan-6-yl hydrogen sulfate] | more active than Avibactam | more active than Avibactam |
| N=C(N)NCC1(c2nnc([C@@H]3CC[C@@H]4CN3C(=O)N4OS(=O)(=O)O)o2)CC1 [Compound 723, (2S,5R)-2-(5-(1-(guanidinomethyl)cyclopropyl)-1,3,4-oxadiazol-2-yl)-7-oxo-1,6-diazabicyclo[3.2.1]octan-6-yl hydrogen sulfate] | more active than Avibactam | more active than Avibactam |
| O=C1N2C[C@@H](CC[C@H]2c2nnc(CCNC3CCNCC3)o2)N1OS(=O)(=O)O [Compound 770, (2S,5R)-7-oxo-2-(5-(2-(piperidin-4-ylamino)ethyl)-1,3,4-oxadiazol-2-yl)-1,6-diazabicyclo[3.2.1]octan-6-yl hydrogen sulfate] | more active than Avibactam | more active than Avibactam |
| O=C1N2C[C@@H](CC[C@H]2c2nnc(CCCC3CNC3)o2)N1OS(=O)(=O)O [Compound 743, (2S,5R)-2-(5-(3-(azetidin-3-yl)propyl)-1,3,4-oxadiazol-2-yl)-7-oxo-1,6-diazabicyclo[3.2.1]octan-6-yl hydrogen sulfate] | more active than Avibactam | more active than Avibactam |
| O=C1N2C[C@@H](CC[C@H]2c2nnc(CN[C@@H]3CCNC3)o2)N1OS(=O)(=O)O [Compound 766, (2S,5R)-7-oxo-2-(5-(((R)-pyrrolidin-3-ylamino)methyl)-1,3,4-oxadiazol-2-yl)-1,6-diazabicyclo[3.2.1]octan-6-yl hydrogen sulfate] | more active than Avibactam | more active than Avibactam |
| O=C1N2C[C@@H](CC[C@H]2c2nnc(CN3CCNCC3)o2)N1OS(=O)(=O)O [Compound 777, (2S,5R)-7-oxo-2-(5-(piperazin-1-ylmethyl)-1,3,4-oxadiazol-2-yl)-1,6-diazabicyclo[3.2.1]octan-6-yl hydrogen sulfate] | more active than Avibactam | more active than Avibactam |
| O=C1N2C[C@@H](CC[C@H]2c2nnc([C@H]3CNCCN3)o2)N1OS(=O)(=O)O [Compound 779, (2S,5R)-7-oxo-2-(5-((R)-piperazin-2-yl)-1,3,4-oxadiazol-2-yl)-1,6-diazabicyclo[3.2.1]octan-6-yl hydrogen sulfate] | more active than Avibactam | more active than Avibactam |
| NC1(Cc2nnc([C@@H]3CC[C@@H]4CN3C(=O)N4OS(=O)(=O)O)o2)CC1 [Compound 724, (2S,5R)-2-(5-((1-aminocyclopropyl)methyl)-1,3,4-oxadiazol-2-yl)-7-oxo-1,6-diazabicyclo[3.2.1]octan-6-yl hydrogen sulfate] | more active than Avibactam | more active than Avibactam |
| N=C(N)NCc1nnc([C@@H]2CC[C@@H]3CN2C(=O)N3OS(=O)(=O)O)s1 [Compound 721, (2S,5R)-2-(5-(guanidinomethyl)-1,3,4-thiadiazol-2-yl)-7-oxo-1,6-diazabicyclo[3.2.1]octan-6-yl hydrogen sulfate] | more active than Avibactam | more active than Avibactam |
| N=C(N)NC1CC(Cc2nnc([C@@H]3CC[C@@H]4CN3C(=O)N4OS(=O)(=O)O)o2)C1 (stereo partly drawn) [Compound 752, (2S,5R)-2-(5-((3-guanidinocyclobutyl)methyl)-1,3,4-oxadiazol-2-yl)-7-oxo-1,6-diazabicyclo[3.2.1]octan-6-yl hydrogen sulfate] | more active than Avibactam | more active than Avibactam |
| O=C1N2C[C@@H](CC[C@H]2c2nnc(CCN3CCNCC3)o2)N1OS(=O)(=O)O [Compound 776, (2S,5R)-7-oxo-2-(5-(2-(piperazin-1-yl)ethyl)-1,3,4-oxadiazol-2-yl)-1,6-diazabicyclo[3.2.1]octan-6-yl hydrogen sulfate] | more active than Avibactam | more active than Avibactam |
| N=C(N)N1CC(c2nnc([C@@H]3CC[C@@H]4CN3C(=O)N4OS(=O)(=O)O)o2)C1 [Compound 709, (2S,5R)-2-(5-(1-carbamimidoylazetidin-3-yl)-1,3,4-oxadiazol-2-yl)-7-oxo-1,6-diazabicyclo[3.2.1]octan-6-yl hydrogen sulfate] | more active than Avibactam | more active than Avibactam |
| N[C@@H]1CN[C@@H](c2nnc([C@@H]3CC[C@@H]4CN3C(=O)N4OS(=O)(=O)O)o2)C1 [Compound 763, (2S,5R)-2-(5-((2R,4S)-4-aminopyrrolidin-2-yl)-1,3,4-oxadiazol-2-yl)-7-oxo-1,6-diazabicyclo[3.2.1]octan-6-yl hydrogen sulfate] | more active than Avibactam | more active than Avibactam |
| N[C@H]1CN[C@H](c2nnc([C@@H]3CC[C@@H]4CN3C(=O)N4OS(=O)(=O)O)o2)C1 [Compound 762, (2S,5R)-2-(5-((2S,4R)-4-aminopyrrolidin-2-yl)-1,3,4-oxadiazol-2-yl)-7-oxo-1,6-diazabicyclo[3.2.1]octan-6-yl hydrogen sulfate] | more active than Avibactam | more active than Avibactam |
